Here are results for 30 molecules from US9765037B2, “Compositions and methods for treating toxoplasmosis, cryptosporidiosis, and other apicomplexan protozoan related diseases” (University of Washington Through its Center for …, priority 2010, dated 2017).

In one series the target is TgCDPK1 (Toxoplasma gondii, UniProt Q9BJF5). It is filed as biochemical.
For another series, the target named is CpCDPK1 (Cryptosporidium parvum (strain Iowa II), UniProt A3FQ16). In words: biochemical. It is filed as biochemical.
Another series addresses PfCDPK1 (Plasmodium falciparum (isolate 3D7), UniProt P62344). Description: biochemical.
In another series the target is PfCDPK4 (Plasmodium falciparum (isolate 3D7), UniProt Q8IBS5). In words: biochemical.
Series [1] concerns human promyelocytic leukemia (HL-60). Description: Growth inhibition of human cell line HL-60.
The subject of series [2] is human lymphocyte (CRL8155). Description: Growth inhibition of human cell line CRL8155.
[3] abbreviates: Table 8, read-out: IC50 (μM) CpCDPK1.

Where two headings read alike, the source gives them in different places.

Sequence of TgCDPK1 (Q9BJF5 1-507): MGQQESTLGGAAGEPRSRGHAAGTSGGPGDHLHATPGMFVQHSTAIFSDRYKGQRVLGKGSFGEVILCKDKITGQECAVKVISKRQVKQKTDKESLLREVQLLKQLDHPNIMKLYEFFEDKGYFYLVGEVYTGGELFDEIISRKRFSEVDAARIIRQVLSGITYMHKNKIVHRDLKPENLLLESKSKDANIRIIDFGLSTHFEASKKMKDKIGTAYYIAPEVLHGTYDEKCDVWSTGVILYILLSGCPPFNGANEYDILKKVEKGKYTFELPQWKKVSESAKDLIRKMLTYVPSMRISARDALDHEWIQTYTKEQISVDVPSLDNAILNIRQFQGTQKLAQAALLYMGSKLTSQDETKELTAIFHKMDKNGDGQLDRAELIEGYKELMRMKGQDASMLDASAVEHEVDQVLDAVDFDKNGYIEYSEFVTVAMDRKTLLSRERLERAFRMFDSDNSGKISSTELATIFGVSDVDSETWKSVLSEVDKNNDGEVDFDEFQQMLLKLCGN
Sequence of CpCDPK1 (A3FQ16 1-538): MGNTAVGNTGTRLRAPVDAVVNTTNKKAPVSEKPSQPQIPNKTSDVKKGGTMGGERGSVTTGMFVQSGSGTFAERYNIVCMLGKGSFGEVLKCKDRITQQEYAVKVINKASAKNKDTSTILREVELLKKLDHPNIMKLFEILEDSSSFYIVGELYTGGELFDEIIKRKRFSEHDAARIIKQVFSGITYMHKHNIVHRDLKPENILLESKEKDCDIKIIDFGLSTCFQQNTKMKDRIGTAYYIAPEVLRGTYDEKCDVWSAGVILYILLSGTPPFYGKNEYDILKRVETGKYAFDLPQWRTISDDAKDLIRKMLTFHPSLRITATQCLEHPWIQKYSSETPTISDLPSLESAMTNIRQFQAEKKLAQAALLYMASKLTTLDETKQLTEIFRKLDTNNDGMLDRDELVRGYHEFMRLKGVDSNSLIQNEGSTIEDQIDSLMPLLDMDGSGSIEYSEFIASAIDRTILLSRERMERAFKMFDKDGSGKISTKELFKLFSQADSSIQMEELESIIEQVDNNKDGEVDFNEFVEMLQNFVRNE

By IC50 is commonly meant the concentration needed to halve the response being measured. Turning to `Cn1nc(Cc2cccc3ccccc23)c2c(N)ncnc21` [Compound 5a, 1-methyl-3-(naphthalen-1-ylmethyl)-1H-pyrazolo[3,4-d]pyrimidin-4-amine], the 50% inhibitory concentration (IC50) on TgCDPK1 (read-out: IC50 (μM) TgCDPK1) was found to be 0.458 µM; on CpCDPK1 (read-out: IC50 (μM) CpCDPK1), 0.413 µM.

Take `C#CCn1nc(Cc2cccc3ccccc23)c2c(N)ncnc21` [Compound 5b, 3-(naphthalen-1-ylmethyl)-1-(prop-2-ynyl)-1H-pyrazolo[3,4-d]pyrimidin-4-amine]: the figures for the IC50 at TgCDPK1 (read-out: IC50 (μM) TgCDPK1) and at CpCDPK1 (read-out: CpCDPK1 IC50) were 0.086 µM and 0.13 µM, respectively.

On to `NC(=O)Cn1nc(Cc2cccc3ccccc23)c2c(N)ncnc21` [Compound 5c, 2-(4-amino-3-(naphthalen-1-ylmethyl)-1H-pyrazolo[3,4-d]pyrimidin-1-yl)acetamide], for which the results for the IC50 at TgCDPK1 (read-out: IC50 (μM) TgCDPK1), at CpCDPK1 (setting [3]) and on CpCDPK1 (read-out: CpCDPK1 IC50) were 1.92 µM, 2.04 µM and 2 µM, respectively.

For the molecule `Nc1ncnc2c1c(Cc1cccc3ccccc13)nn2Cc1ccccc1` [Compound 5e, 1-benzyl-3-(naphthalen-1-ylmethyl)-1H-pyrazolo[3,4-d]pyrimidin-4-amine], the IC50 on TgCDPK1 (read-out: IC50 (μM) TgCDPK1) was 1.85 µM; on CpCDPK1 (Table 3, average of three assays ± (SEM), read-out: CpCDPK1 IC50), more than 3 µM; at CpCDPK1 (setting [3]), more than 3 µM.

For `Nc1ncnc2c1c(Cc1cccc3ccccc13)nn2C1CCCCC1` [Compound 5f, 1-cyclohexyl-3-(naphthalen-1-ylmethyl)-1H-pyrazolo[3,4-d]pyrimidin-4-amine], the IC50 turned out to be 0.946 µM on TgCDPK1 (read-out: IC50 (μM) TgCDPK1) and 1 µM at TgCDPK1 (read-out: TgCDPK1 IC50).

As to `CC(=O)N1CCC(n2nc(Cc3cccc4ccccc34)c3c(N)ncnc32)CC1` [Compound 5j, 1-(4-(4-amino-3-(naphthalen-1-ylmethyl)-1H-pyrazolo[3,4-d]pyrimidin-1-yl)piperidin-1-yl)ethanone], the IC50 at TgCDPK1 (read-out: IC50 (μM) TgCDPK1) came to 0.091 µM; at CpCDPK1 (setting [3]), 0.103 µM; on CpCDPK1 (read-out: CpCDPK1 IC50), 0.1 µM.

With `CC(=O)N1CCC(Cn2nc(Cc3cccc4ccccc34)c3c(N)ncnc32)CC1` [Compound 5k, 1-(4-((4-amino-3-(naphthalen-1-ylmethyl)-1H-pyrazolo[3,4-d]pyrimidin-1-yl)methyl)piperidin-1-yl)ethanone], the figures for the IC50 on TgCDPK1 (read-out: IC50 (μM) TgCDPK1) and at CpCDPK1 (read-out: IC50 (μM) CpCDPK1) were 0.208 µM and 0.36 µM, respectively.

In the case of `CC(=O)N1CCC(CCn2nc(Cc3cccc4ccccc34)c3c(N)ncnc32)CC1` [Compound 5l, 1-(4-(2-(4-amino-3-(naphthalen-1-ylmethyl)-1H-pyrazolo[3,4-d]pyrimidin-1-yl)ethyl)piperidin-1-yl)ethanone], the IC50 at TgCDPK1 (read-out: IC50 (μM) TgCDPK1) is 0.104 µM; on CpCDPK1 (read-out: IC50 (μM) CpCDPK1), 0.179 µM.

As to `CS(=O)(=O)N1CCC(Cn2nc(Cc3cccc4ccccc34)c3c(N)ncnc32)CC1` [Compound 5q, 1-((1-(methylsulfonyl)piperidin-4-yl)methyl)-3-(naphthalen-1-ylmethyl)-1H-pyrazolo[3,4-d]pyrimidin-4-amine], the IC50 on TgCDPK1 (read-out: IC50 (μM) TgCDPK1) came out at 0.563 µM; at CpCDPK1 (setting [3]) it was 0.691 µM; at CpCDPK1 (read-out: CpCDPK1 IC50), 0.7 µM.

For `CS(=O)(=O)N1CCC(CCn2nc(Cc3cccc4ccccc34)c3c(N)ncnc32)CC1` [Compound 5r, 1-(2-(1-(methylsulfonyl)piperidin-4-yl)ethyl)-3-(naphthalen-1-ylmethyl)-1H-pyrazolo[3,4-d]pyrimidin-4-amine], the IC50 at TgCDPK1 (read-out: IC50 (μM) TgCDPK1) was determined as 0.117 µM; on CpCDPK1 (setting [3]), 0.194 µM; on CpCDPK1 (read-out: CpCDPK1 IC50), 0.2 µM.

On to `CC(C)n1nc(-c2cccc(OCc3ccccc3)c2)c2c(N)ncnc21` [Compound 7aa, 3-(3-(benzyloxy)phenyl)-1-isopropyl-1H-pyrazolo[3,4-d]pyrimidin-4-amine], for which the “inhibition of TgCDPK1 (in words)” value at TgCDPK1 was “neither kinase is inhibited”. Moreover, the IC50 at TgCDPK1 (read-out: IC50 (μM) TgCDPK1) was determined as 1.06 µM.

Take `CC(C)n1nc(-c2cccc(Cl)c2)c2c(N)ncnc21` [Compound 7b, 3-(3-chlorophenyl)-1-isopropyl-1H-pyrazolo[3,4-d]pyrimidin-4-amine]: the IC50 at TgCDPK1 (read-out: IC50 (μM) TgCDPK1) came out at 0.02 µM; at CpCDPK1 (setting [3]) it was 0.115 µM; at CpCDPK1 (read-out: CpCDPK1 IC50), 0.12 µM.

For the molecule `CC(C)c1ccc(-c2nn(C(C)C)c3ncnc(N)c23)cc1` [Compound 7d, 1-isopropyl-3-(4-isopropylphenyl)-1H-pyrazolo[3,4-d]pyrimidin-4-amine], the IC50 worked out at 0.048 µM at TgCDPK1 (read-out: IC50 (μM) TgCDPK1), 0.213 µM at CpCDPK1 (setting [3]) and 0.21 µM on CpCDPK1 (read-out: CpCDPK1 IC50).

As for `Cc1ccc(-c2nn(C(C)C)c3ncnc(N)c23)cc1` [Compound 7f, 1-isopropyl-3-p-tolyl-1H-pyrazolo[3,4-d]pyrimidin-4-amine], the concentration for half-maximal inhibition (IC50) on TgCDPK1 (read-out: IC50 (μM) TgCDPK1) turned out to be 0.013 µM; at CpCDPK1 (read-out: IC50 (μM) CpCDPK1), 0.087 µM.

Take `Cc1ccc(-c2nn(C(C)C)c3ncnc(N)c23)cc1C` [Compound 7h, 3-(3,4-dimethylphenyl)-1-isopropyl-1H-pyrazolo[3,4-d]pyrimidin-4-amine]: the IC50 on TgCDPK1 (read-out: IC50 (μM) TgCDPK1) turned out to be 0.009 µM; at CpCDPK1 (read-out: CpCDPK1 IC50), 0.022 µM.

Consider `Cc1cc(-c2nn(C(C)C)c3ncnc(N)c23)ccc1F` [Compound 7i, 3-(4-fluoro-3-methylphenyl)-1-isopropyl-1H-pyrazolo[3,4-d]pyrimidin-4-amine], for which the IC50 at TgCDPK1 (read-out: IC50 (μM) TgCDPK1) stood at 0.009 µM; at CpCDPK1 (read-out: IC50 (μM) CpCDPK1) it was 0.053 µM.

Turning to `CC(C)n1nc(-c2cccc3ccccc23)c2c(N)ncnc21` [Compound 7o, 1-isopropyl-3-(naphthalen-1-yl)-1H-pyrazolo[3,4-d]pyrimidin-4-amine], the values for the IC50 on TgCDPK1 (read-out: IC50 (μM) TgCDPK1) and on CpCDPK1 (read-out: CpCDPK1 IC50) were 0.326 µM and 0.62 µM, respectively.

For the molecule `COc1cc2ccccc2cc1-c1nn(C(C)C)c2ncnc(N)c12` [Compound 7s, 1-isopropyl-3-(3-methoxynaphthalen-2-yl)-1H-pyrazolo[3,4-d]pyrimidin-4-amine], the IC50 on TgCDPK1 (read-out: IC50 (μM) TgCDPK1) was 0.863 µM; on TgCDPK1 (read-out: TgCDPK1 IC50), 0.9 µM; on CpCDPK1 (setting [3]) it was 0.591 µM; on CpCDPK1 (read-out: CpCDPK1 IC50), 0.6 µM.

Regarding `CC(C)n1nc(-c2ccc3c(c2)CCCO3)c2c(N)ncnc21` [Compound 7w, 3-(chroman-6-yl)-1-isopropyl-1H-pyrazolo[3,4-d]pyrimidin-4-amine], the IC50 came to 0.017 µM at TgCDPK1 (read-out: IC50 (μM) TgCDPK1) and 0.11 µM on CpCDPK1 (read-out: CpCDPK1 IC50).

Turning to `CC(C)n1nc(-c2cccc3c2sc2ccccc23)c2c(N)ncnc21` [Compound 7x, 3-(dibenzo[b,d]thiophen-4-yl)-1-isopropyl-1H-pyrazolo[3,4-d]pyrimidin-4-amine], the IC50 on TgCDPK1 (read-out: IC50 (μM) TgCDPK1) was more than 3 µM; at TgCDPK1 (read-out: TgCDPK1 IC50) it was more than 3 µM; at CpCDPK1 (Table 4, average of three assays ± (SEM), read-out: CpCDPK1 IC50), more than 3 µM; at CpCDPK1 (setting [3]), more than 3 µM.

Turning to `CC(C)n1nc(-c2cccc(Cc3ccccc3)c2)c2c(N)ncnc21` [Compound 7y, 3-(3-benzylphenyl)-1-isopropyl-1H-pyrazolo[3,4-d]pyrimidin-4-amine], the “inhibition of TgCDPK1 (in words)” value on TgCDPK1 was “neither kinase is inhibited”. On TgCDPK1 (read-out: IC50 (μM) TgCDPK1), the IC50 is 0.322 µM.

Regarding `CC(C)n1nc(-c2cccc(-c3ccccc3)c2)c2c(N)ncnc21` [Compound 7z, 3-(biphenyl-3-yl)-1-isopropyl-1H-pyrazolo[3,4-d]pyrimidin-4-amine], the “inhibition of TgCDPK1 (in words)” value on TgCDPK1 is listed as “neither kinase is inhibited”. Moreover, the IC50 at TgCDPK1 (read-out: IC50 (μM) TgCDPK1) amounted to 2.23 µM.

For `Nc1ncnc2c1c(Cc1cccc3ccccc13)nn2C1CCCC1` [Compound 13, 1-cyclopentyl-3-(naphthalen-1-ylmethyl)-1H-pyrazolo[3,4-d]pyrimidin-4-amine], the IC50 at TgCDPK1 (read-out: IC50 (μM) TgCDPK1) turned out to be 0.553 µM; at CpCDPK1 (setting [3]) it was 0.894 µM.

Turning to `CC(C)n1nc(Cc2ccc3ccccc3c2)c2c(N)ncnc21` [Compound 14, 1-isopropyl-3-(naphthalen-2-ylmethyl)-1H-pyrazolo[3,4-d]pyrimidin-4-amine], the IC50 came to 0.627 µM at TgCDPK1 (read-out: IC50 (μM) TgCDPK1) and 0.953 µM at CpCDPK1 (setting [3]).

As usually defined, the EC50 is the concentration needed to bring the measured effect to its halfway point. Higher therefore signals lower potency in that assay. In the case of `CC(C)n1nc(-c2ccc3c(ccn3C)c2)c2c(N)ncnc21` [Compound 20, 1-isopropyl-3-(1-methyl-1H-indol-5-yl)-1H-pyrazolo[3,4-d]pyrimidin-4-amine], the IC50 at CpCDPK1 (setting [3]) was 0.003 µM. In addition, the values for the EC50 on PfCDPK1 and on PfCDPK4 were 0.309 µM and 0.231 µM, respectively. Also, the “Cell Toxicity HL60, % at 10 μM” value in series [1] is less than 30% at 10 μM. Also, the “Cell Toxicity CRL8155, % at 10 μM” value in series [2] is less than 30% at 10 μM.

In the case of `Cc1cccc2[nH]c(-c3nn(C(C)C)c4ncnc(N)c34)cc12` [Compound 25, 1-isopropyl-3-(4-methyl-1H-indol-2-yl)-1H-pyrazolo[3,4-d]pyrimidin-4-amine], the EC50 at PfCDPK4 was found to be 0.579 µM. For the same molecule, the “Cell Toxicity HL60, % at 10 μM” value in series [1] stood at 47% toxicity at. Further, in series [2], the “Cell Toxicity CRL8155, % at 10 μM” value came out at 38% toxicity at.

With `CC(C)n1nc(-c2ccc3cc(OCc4ccccc4Cl)ccc3c2)c2c(N)ncnc21` [Compound 46, 3-(6-(2-chlorobenzyloxy)naphthalen-2-yl)-1-isopropyl-1H-pyrazolo[3,4-d]pyrimidin-4-amine], the EC50 at PfCDPK1 is 0.477 µM; at PfCDPK4, more than 3 µM. Further, the “Cell Toxicity HL60, % at 10 μM” value in series [1] is given as less than 30% at 10 μM. The “Cell Toxicity CRL8155, % at 10 μM” value in series [2] was less than 30% at 10 μM.

For `CC(C)(C)c1nc(-c2cnc3ccccc3c2)c2c(N)nccn12` [Compound 72, 3-tert-butyl-1-(quinolin-3-yl)imidazo[1,5-a]pyrazin-8-amine], the EC50 on PfCDPK1 stood at 0.948 µM; at PfCDPK4 it was 0.241 µM. In addition, the “Cell Toxicity HL60, % at 10 μM” value in series [1] is given as less than 30% at 10 μM. Besides, the “Cell Toxicity CRL8155, % at 10 μM” value in series [2] is less than 30% at 10 μM.

As for `O=C(CCCC1CCNCC1)Nc1nc2ccc(C(=O)c3ccccc3)cc2[nH]1` [Compound 115], the “Cell Toxicity HL60, % at 10 μM” value in series [1] is less than 30% at 10 μM. For the same molecule, in series [2], the “Cell Toxicity CRL8155, % at 10 μM” value was less than 30% at 10 μM.

With `Nc1ncnc2c1c(-c1ccc3nccnc3c1)nn2CC1CCNCC1` [Compound 122], the half-maximal effective concentration (EC50) at PfCDPK1 is 0.482 µM; at PfCDPK4 it was more than 3 µM. Also, in series [1], the “Cell Toxicity HL60, % at 10 μM” value is recorded as less than 30% at 10 μM. For the same molecule, in series [1] (30 μM), the “Cell Toxicity HL60, % at 30 μM” value is on record as less than 30% at 30 μM. Further, the “Cell Toxicity CRL8155, % at 10 μM” value in series [2] is given as less than 30% at 10 μM. Besides, in series [2] (30 μM), the “Cell Toxicity CRL8155, % at 30 μM” value is less than 30% at 30 μM.
